Laboratory results from PubChem BioAssay AID2060902 (Molecular Pharmacology Branch, DTP, NCI, 2025).

Test system: 485368-065-R3-J5-PDC spheroids with HUVEC/MSC, viability
Experiment: Anticancer human tumor 485368-065-R3-J5-PDC patient-derived pancreatic carcinoma cell line growth inhibition [RAS]
Settings: for IC50: curve of first compound; for viability, T/C: stronger effect = lower value
Description: RAS pathway inhibitors in Combinations in Complex Spheroids
A high-throughput screen of multi-cell type tumor spheroids was designed to identify active combinations of RAS pathway inhibitors and targeted small molecules. Complex spheroids include a stromal component modeled by human endothelial cells (HUVEC) and fibroblasts modeled by human mesenchymal stem cells (MSCs). The concentration ranges selected for each drug and investigational agent were based upon clinically achievable concentrations if the clinical Cmax of the agent was known.
Compounds. The drugs and investigational agents: abemaciclib (NSC768073), cobimetinib (NSC768068), divarasib (GDC6063, NSC841802), docetaxel (NSC628503), GDC-1971 (RLY-1971, NSC841576), gemcitabine (NSC613327), inavolisib (NSC800729), ipatasertib (NSC767898), KB-0742 (NSC834161), MRTX-1133 (NSC836407), osimertinib (NSC779217), RMC-4630 (NSC839698), RMC-6236 (NSC851965), RMC-6291 (NSC852671), Ro-3306 (NSC812927), sapanisertib (NSC764658), SN-38 (NSC673596), staurosporine (NSC755774), SY5609 (NSC837396), and tovorafenib (DAY101, NSC766906), were obtained from the National Cancer Institute (NCI) Developmental Therapeutics Program Chemical Repository. The FDA-approved anticancer drug set is available from the NCI Developmental Therapeutics Program. […] The stock solutions were prepared in dimethyl sulfoxide (DMSO, Sigma-Aldrich, St. Louis, MO, cat. D2650) at 800-fold the tested concentration and stored at -70 degrees C prior to their use. All drugs and investigational agents were tested over a range starting from a high concentration at or near the clinical Cmax and decreasing in half-log increments. If the clinical Cmax for an agent had not been determined, the highest concentration tested was 10 microM.
Cell Culture. All cells were maintained in an incubator at 37 degrees C and 5% CO2 with 95% humidity. The PDC lines were cultured according to standard operating procedures established by the NCI PDMR. All PDCs were thawed and cultured in Matrigel-coated flasks prepared with a working solution of 1X Ham's F-12 nutrient mix, without supplementation (Invitrogen, Waltham, MA, cat. 11765054), 100 U/mL penicillin-streptomycin (Invitrogen, cat. 15140122), and 2.5% Matrigel (Corning Inc., Corning, NY, cat. 354248) for the first three passages. The 362531-283-R-J2-PDC and 782815-120-R-J1-PDC lines were cultured in 6C/Colon 1B media, which includes advanced DMEM/F-12 (Thermo Fisher Scientific, cat. 12634028), 10 mM HEPES (Thermo Fisher Scientific, cat. 15630080), 1X GlutaMAX supplement (Thermo Fisher Scientific, cat. 35050061), 0.1 mg/mL primocin (InvivoGen, San Diego, CA, cat. ant-pm-2), 10% defined fetal bovine serum, heat inactivated (HyClone Laboratories Inc., Logan, UT, cat. SH30070.03HI), 50% L-WRN conditioned media (ATCC, cat. CRL-3276), 1.25 mM N-Acetyl-L-cysteine (Sigma-Aldrich, cat. A9165), 10 mM nicotinamide (Sigma-Aldrich, cat. N0636), 1X B-27 supplement (Thermo Fisher Scientific, cat. 17504044), 1X N-2 supplement (Thermo Fisher Scientific, cat. 17502048), 50 ng/mL human EGF (Thermo Fisher Scientific, cat. PHG0311), and 10 microM Y-27632 dihydrochloride (Tocris Bioscience, cat. 1254). The K12877-001-R-J1-PDC line was cultured in 6I media, which includes all 6C/Colon 1B media plus 10 ng/mL human FGF-10 (PeproTech, cat. 100-26), 1 ng/mL human FGF-2 (PeproTech, cat. 100-18B), 1 µM prostaglandin E2 (Tocris Bioscience, cat. 2296), […] hydrocortisone (Sigma-Aldrich, cat. H4001), and […] bovine insulin (Sigma-Aldrich, cat. I6634). The K86415-001-R-J1-PDC line was cultured in 6D media, which includes all 6C/Colon 1B media components minus the L-WRN conditioned media. The 485176-168-R4-J1-PDC was cultured in PANC media, which includes all 6C/Colon 1B media plus 100 ng/mL human FGF-10 (PeproTech, cat. 100-26), 500 nM SB-431542 (Selleckchem, cat. S1067), and 10 nM gastrin (Tocris Bioscience, cat. 3006). […]

[1] = second compound 0.000949 µM, first compound 0.000949 µM
[2] = second compound 0.000949 µM, first compound 0.003 µM
[3] = second compound 0.000949 µM, first compound 0.00949 µM
[4] = second compound 0.000949 µM, first compound 0.03 µM
[5] = second compound 0.000949 µM, first compound 0.0949 µM
[6] = second compound 0.000949 µM, first compound 0.3 µM
[7] = second compound 0.003 µM, first compound 0.000949 µM
[8] = second compound 0.003 µM, first compound 0.003 µM
[9] = second compound 0.003 µM, first compound 0.00949 µM
[10] = second compound 0.003 µM, first compound 0.03 µM
[11] = second compound 0.003 µM, first compound 0.0949 µM
[12] = second compound 0.003 µM, first compound 0.3 µM
[13] = second compound 0.00949 µM, first compound 0.000949 µM
[14] = second compound 0.00949 µM, first compound 0.003 µM
[15] = second compound 0.00949 µM, first compound 0.00949 µM
[16] = second compound 0.00949 µM, first compound 0.03 µM
[17] = second compound 0.00949 µM, first compound 0.0949 µM
[18] = second compound 0.00949 µM, first compound 0.3 µM
[19] = second compound 0.03 µM, first compound 0.000949 µM
[20] = second compound 0.03 µM, first compound 0.003 µM
[21] = second compound 0.03 µM, first compound 0.00949 µM
[22] = second compound 0.03 µM, first compound 0.03 µM
[23] = second compound 0.03 µM, first compound 0.0949 µM
[24] = second compound 0.03 µM, first compound 0.3 µM
[25] = second compound 0.0949 µM, first compound 0.000949 µM
[26] = second compound 0.0949 µM, first compound 0.003 µM
[27] = second compound 0.0949 µM, first compound 0.00949 µM
[28] = second compound 0.0949 µM, first compound 0.03 µM
[29] = second compound 0.0949 µM, first compound 0.0949 µM
[30] = second compound 0.0949 µM, first compound 0.3 µM
[31] = second compound 0.3 µM, first compound 0.000949 µM
[32] = second compound 0.3 µM, first compound 0.003 µM
[33] = second compound 0.3 µM, first compound 0.00949 µM
[34] = second compound 0.3 µM, first compound 0.03 µM
[35] = second compound 0.3 µM, first compound 0.0949 µM
[36] = second compound 0.3 µM, first compound 0.3 µM
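Further: spheroids exposed to agents for seven days before readout.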

## CC1(C)CCC(Nc2ncc(C(F)(F)F)c(-c3c[nH]c4c(P(C)(C)=O)c(C#N)ccc34)n2)CN1 (centres undefined) + CCn1c(-c2cccnc2C(C)OC)c2c3cc(ccc31)N1CCOC(CC(NC(=O)C(C(C)C)N(C)C(=O)C3(F)CCN(C(=O)C#CC(C)(C)N(C)C)CC3)C(=O)N3CCCC(N3)C(=O)OCC(C)(C)C2)C1
Second compound 0.000949 µM
  IC50: 9.04 nM
Second compound 0.003 µM
  IC50: 15.7 nM
Second compound 0.00949 µM
  IC50: 8.62 nM
Second compound 0.03 µM
  IC50: 7.35 nM
Second compound 0.0949 µM
  IC50: 13.6 nM
Second compound 0.3 µM
  IC50: 17.6 nM
[1]
  viability, T/C: 116%
[2]
  viability, T/C: 85.7%
[3]
  viability, T/C: 48%
[4]
  viability, T/C: 47.1%
[5]
  viability, T/C: 43.6%
[6]
  viability, T/C: 39.9%
[7]
  viability, T/C: 109%
[8]
  viability, T/C: 73.9%
[9]
  viability, T/C: 61%
[10]
  viability, T/C: 40.3%
[11]
  viability, T/C: 32.7%
[12]
  viability, T/C: 35.9%
[13]
  viability, T/C: 107%
[14]
  viability, T/C: 86.7%
[15]
  viability, T/C: 46.6%
[16]
  viability, T/C: 40.9%
[17]
  viability, T/C: 42.5%
[18]
  viability, T/C: 38.2%
[19]
  viability, T/C: 108%
[20]
  viability, T/C: 66.1%
[21]
  viability, T/C: 47.4%
[22]
  viability, T/C: 35.2%
[23]
  viability, T/C: 38.3%
[24]
  viability, T/C: 45.3%
[25]
  viability, T/C: 104%
[26]
  viability, T/C: 76.2%
[27]
  viability, T/C: 54.9%
[28]
  viability, T/C: 39.9%
[29]
  viability, T/C: 39%
[30]
  viability, T/C: 35.5%
[31]
  viability, T/C: 102%
[32]
  viability, T/C: 92.3%
[33]
  viability, T/C: 55.1%
[34]
  viability, T/C: 47%
[35]
  viability, T/C: 45.6%
[36]
  viability, T/C: 42.6%

## CCc1c2c(nc3ccc(O)cc13)-c1cc3c(c(=O)n1C2)COC(=O)[C@]3(O)CC + CCn1c(-c2cc(N3CCN(C)CC3)cnc2C(C)OC)c2c3cc(ccc31)-c1csc(n1)CC(NC(=O)C1CC1C)C(=O)N1CCCC(N1)C(=O)OCC(C)(C)C2
Second compound 0.000949 µM
  IC50: < 0.949 nM
Second compound 0.003 µM
  IC50: < 0.949 nM
Second compound 0.00949 µM
  IC50: < 0.949 nM
Second compound 0.03 µM
  IC50: < 0.949 nM
Second compound 0.0949 µM
  IC50: < 0.949 nM
Second compound 0.3 µM
  IC50: < 0.949 nM
[1]
  viability, T/C: 29.2%
[2]
  viability, T/C: 19.3%
[3]
  viability, T/C: 12.3%
[4]
  viability, T/C: 6.49%
[5]
  viability, T/C: 3.81%
[6]
  viability, T/C: 3.85%
[7]
  viability, T/C: 17.6%
[8]
  viability, T/C: 13.6%
[9]
  viability, T/C: 9.1%
[10]
  viability, T/C: 7.85%
[11]
  viability, T/C: 5.44%
[12]
  viability, T/C: 3.67%
[13]
  viability, T/C: 15.4%
[14]
  viability, T/C: 11.8%
[15]
  viability, T/C: 8.19%
[16]
  viability, T/C: 7.82%
[17]
  viability, T/C: 5.53%
[18]
  viability, T/C: 6.59%
[19]
  viability, T/C: 9.82%
[20]
  viability, T/C: 8.14%
[21]
  viability, T/C: 6.87%
[22]
  viability, T/C: 8.66%
[23]
  viability, T/C: 5.8%
[24]
  viability, T/C: 7.18%
[25]
  viability, T/C: 8.87%
[26]
  viability, T/C: 8.54%
[27]
  viability, T/C: 6.42%
[28]
  viability, T/C: 6.3%
[29]
  viability, T/C: 6.27%
[30]
  viability, T/C: 5.48%
[31]
  viability, T/C: 7.33%
[32]
  viability, T/C: 9.17%
[33]
  viability, T/C: 6.28%
[34]
  viability, T/C: 5.07%
[35]
  viability, T/C: 5.93%
[36]
  viability, T/C: 5.26%
